# According to patent US12089595B2, “Pseudomonas strains and their metabolites to control plant diseases” (T3 Bioscience, Inc., priority 2020, dated 2024):
# System: strain 0617-T307
# Experiment: Bioactive fractions tested against the producer strain
# Type: cell-based, Pseudomonas soli
# Details: crude extracts 100 μg/mL; flash-RejuAgro A 20 μg/mL; HPLC-RejuAgro A 10 μg/mL
# Procedure: Two assays were used for the antimicrobial test of 0617-T307 cell broth and metabolites. One is plate diffusion assay and the other one is microplate assay. LB plate was used for the plate diffusion assay of the antimicrobial activity of RejuAgro A containing fractions and cell broths against E. amylovora (Table 3).
# The bioactive fractions (crude extracts, 100 μg/mL; flash-RejuAgro A, 20 μg/mL; HPLC-RejuAgro A, 10 μg/mL) were tested against strains 0617-T307, Ea and Xac.
smiles,measurement,value
CSC1=C(C)C(=O)C(=O)NC1=O [RejuAgro A],inhibition of growth of strain 0617-T307,not able to inhibit the growth
